Results on 1 compound are retold here after US20260232752A1, “COMBINATION THERAPY METHODS, COMPOSITIONS AND KITS” (Accure Therapeutics, S.L., priority 2019, published 2026).

Experiment [1] relates to experimental autoimmune encephalomyelitis (EAE) mouse model. The experiment is described as follows: Study EAE-C05: clinical score in EAE mouse model with active comparators. Particulars: 100 mg/kg daily, after 5 days of treatment. The class given is in vivo. How it is done: A second experiment (Study EAE-C05) was then performed using the same mouse model.
Study EAE-C05: In addition to two dose levels of BN201 and a placebo-treated group (pathological control group), the study design introduced two active comparators, dimethyl fumarate (DMF) and fingolimod (FTY720), and a sham group (group in which animals were manipulated as the pathological group but without MOG injection). All groups were administered daily. • sham control non-diseased placebo-treated animals (healthy control group); • EAE-affected placebo-treated animals (pathological control group); • EAE-affected animals treated orally with 15 mg/kg of DMF; • EAE-affected animals treated with 2 mg/kg of FTY720; • EAE-affected animals treated with BN201 at 50 or 100 mg/kg.
(§1) Clinical scores were assigned to assess disease severity using the following scale: 0=normal; 0.5=Partial tail paralysis; 1=Complete tail paralysis; 1.5=Tail paralysis and loss of righting reflex; 2=Partial hind limb paralysis/paralysis of one limb; 2.5=One limb paralysis and partial loss of activity of one other limb; 3=Bilateral hind limb paralysis; 4=Moribund; 5=exitus.
Therapeutic treatment was initiated on day 12 or 13, once each mouse started showing complete tail paralysis (Score 1).

Experiment [2] shares this test system. The experiment is described as follows: Study EAE-C06: dose response of BN201, clinical score in EAE mouse model. The class given is in vivo. Particulars: almost all days of observation/treatment (Day 2 to day 30). How it is done:
A third experiment (Study EAE-C06) to test dose response of BN201 was then performed using the same mouse model.
Study EAE-C06: five different concentrations of BN201: 12.5 mg/kg, 25 mg/kg, 50 mg/kg, 100 mg/kg, and 150 mg/kg. Also sham, pathological control and FTY720 (2 mg/kg) comparator groups were included in the experiment. All groups were administered daily.
as §1
Therapeutic treatment was initiated on day 12 once each mouse started showing complete tail paralysis (Score 1).
Data are depicted in FIG. 1 (C), wherein the clinical score for each of the tested groups is plotted per day after disease onset.

Experiment [3] has the same test system. The experiment is described as follows: Study EAE-C03: clinical score in EAE mouse model, treatment in chronic phase. The class given is in vivo. Particulars: after 17 days of treatment, treatment started in chronic phase. How it is done:
Three in vivo studies supporting the medical plausibility of BN201 in the treatment of MS and optic neuritis were performed. These studies sought to test the neuroprotective effect of BN201 and were conducted in the neurodegenerative and demyelinating experimental autoimmune encephalomyelitis (EAE) mouse model. Immune response to Myelin Basic Protein (MBP) or Myelin Proteolipid Protein (PLP) induces lesions located predominantly in the spinal cord whereas immunization with Myelin Oligodendrocyte Glycoprotein (MOG) generates lesions located predominantly in the optic nerve and spinal cord. In the literature, the EAE model is commonly used as a model of MS and optic neuritis, since it can cause irreversible visual loss (Kezuka et al, Analysis of the pathogenesis of experimental autoimmune optic neuritis. J Biomed Biotechnol. 2011; 2011:294046; Guo et al, Decreased neural stem/progenitor cell proliferation in mice with chronic/nonremitting experimental autoimmune encephalomyelitis. Neurosignals. 2010; 18(1):1-8).
Study EAE-C03: daily i.p. administration of BN201 at two different concentrations was tested versus placebo according to the following experimental design: • EAE affected placebo-treated animals (pathological control group); • EAE-affected animals treated with BN201 at 50 mg/kg dose and • EAE-affected animals treated with BN201 at 100 mg/kg dose. […]

For experiment [4], the system named is EAE in C57BL6 mice immunized with MOG35-55. The experiment is described as follows: Example 3: BN201 and DMF combination, progression of chronic EAE. Particulars: BN201 25 mg/kg i.p. alone (suboptimal), once a day six days per week from day 15. The class given is in vivo, mouse. On the procedure:
Effect in the animal model of MS (i.e., EAE in C57BL6 mice immunized with MOG35-55), similar to Example 2.
Starting on day 15, mice were administered: • dimethyl fumarate (DMF) (group A, 10 mice), • BN201 (group B, 10 mice) • a combination thereof (group C, 10 mice) once a day for six days per week at suboptimal dosages (10 mg/kg for DMF, 25 mg/kg for BN201).
DMF was administered orally with a rigid cannula in a saline vehicle at a volume of 10 mL/kg, while BN201 was administered via i.p. injection in a saline vehicle at a volume of 5 mL/kg. Control mice received vehicle only via both oral and i.p. injection (group D, 10 mice) or nothing at all (group E, 2 mice).
The objective of the study was to evaluate the efficacy and safety of combination therapy with suboptimal doses of BN201 (25 mg/kg) and dimethyl-fumarate (DMF) (10 mg/kg) in the progression of chronic EAE in mice.
During a one week acclimation period starting on day −7, mice were distributed based on body weight stratification into different experimental groups. On day 0, mice were immunized subcutaneously in both hind pads with 150 μg of MOG peptide 35-55 (Spikem, Firenze) emulsified with 50 μg of Mycobacterium tuberculosis (H37Ra strain; Difco, Detroit, MI) in incomplete Freund's adjuvant (IFA). […]

Turning to `CC(C)CN(CC(=O)N(CCCN1CCCC1=O)CC(N)=O)C(=O)CNCCc1ccccc1F` [BN201, [N-(2-(2′-Fluorophenyl)ethyl)glycyl]-[N-(2-methylpropyl)glycyl]-N-[3-(2′-oxopyrrolidinyl)-propyl]glycinamide], the “clinical score compared to pathological control group” value in experiment [1] is reported as “significantly lower”. The clinical score result in experiment [2] (50 mg/kg daily) and in experiment [2] (100 mg/kg daily) was “significant amelioration of the clinical score” each time. The “clinical score compared to placebo” value in experiment [3] (50 mg/kg daily i.p.) and in experiment [3] (100 mg/kg daily i.p.) was “significantly decreased the clinical score” each time. Besides, the “course of EAE (clinical score) versus placebo” value in experiment [4] is recorded as “suffered EAE similar to those mice treated with placebo”.
